Measurements taken from article PMC3707518 (Journal of nuclear medicine : official publication, Society …, 2010).
“And” between values parts separate entries of the source, which are not always exact repeats. Identical values can stand only once.

Assays:
[1] = dependent smokers; cited from earlier work
[2] = Plasma nicotine and cotinine levels, smoking challenge and abstinence check
β2*-nAChRs [3] = target: T1, β2*-nAChRs (Homo sapiens, UniProt P17787); conditions: 3 h after smoking challenge; representative subject, Fig. 4
T1 sequence (P17787 26-502): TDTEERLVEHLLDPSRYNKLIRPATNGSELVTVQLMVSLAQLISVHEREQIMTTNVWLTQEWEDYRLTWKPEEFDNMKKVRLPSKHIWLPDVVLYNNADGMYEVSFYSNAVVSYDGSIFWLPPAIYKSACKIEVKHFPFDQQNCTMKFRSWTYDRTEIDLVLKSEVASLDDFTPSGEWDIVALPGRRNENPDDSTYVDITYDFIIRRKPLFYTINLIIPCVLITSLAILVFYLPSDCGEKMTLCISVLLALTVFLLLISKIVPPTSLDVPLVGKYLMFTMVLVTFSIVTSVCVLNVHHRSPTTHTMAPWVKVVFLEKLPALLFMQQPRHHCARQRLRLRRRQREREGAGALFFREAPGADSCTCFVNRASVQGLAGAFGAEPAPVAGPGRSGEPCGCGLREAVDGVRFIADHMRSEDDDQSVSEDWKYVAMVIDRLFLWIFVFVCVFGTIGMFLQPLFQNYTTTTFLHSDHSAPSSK

β2*-nAChRs [4] = target: T1, β2*-nAChRs; conditions: 3.1 h; cited from earlier work
β2*-nAChR = conditions: cited from earlier work
[5] = cited from earlier work
β2*-nAChRs [6] = conditions: nonhuman primates, cited from earlier work
β2*-nAChRs [7] = target: T1, β2*-nAChRs; assay: ^123I-5-IA SPECT regional uptake; type: in vivo

CN1CCC[C@H]1c1cccnc1 [nicotine]
Time for nicotine from tobacco smoke to reach the brain after inhalation [1]: ≤ 30 s
Time of highest nicotine concentration ([2]; after initiation of tobacco smoking, representative subject, Fig. 2B): 20 min
Blood nicotine area under curve (60 min) ([2]; after smoking to satiety, individual subjects 1-10 and mean ± SD): 4,864.0 and 3,764.0 and 8,273.0 and 8,124.0 and 8,544.3 ± 7,068.8 and 3,470.0 and 7,153.0 and 7,840.0 and 27,700.0 and 4,488.0 and 9,767.0
Maximal occupancy (β2*-nAChRs [3]): 69.1%
Nicotine in blood at the time of greatest occupancy (β2*-nAChRs [4]): less than 4 ng/mL

c1cncc(OC[C@@H]2CCN2)c1 [A-85380, 3-[2(S)-2-azetidinylmethoxy]pyridine]
Affinity (β2*-nAChR): high affinity
Selectivity for the β2*-nAChR (β2*-nAChR): high selectivity

[123I]c1cncc(OC[C@@H]2CCN2)c1 [^123I-5-IA, 5-^123I-iodo-85380]
Safety [5]: safe and nontoxic
Nondisplaceable binding in the thalamus (β2*-nAChRs [6]; inferred from specific binding): about 30%
Specific binding in the thalamus (β2*-nAChRs [6]): about 70%
Nondisplaceable uptake VND/fp (β2*-nAChRs [7]; average and range across subjects, brain, after smoking to satiety): 19.4 ± 5.8 mL·cm^−3 and 15–28 mL·cm^−3
Average VND without correcting for fp (β2*-nAChRs [7]; not corrected for plasma free fraction): 7.03 ± 1.92 kBq/cm^3
